Laboratory results as given in US8858988B2, “Compositions comprising extracts of Boswellia, tea tree, aloe and lavender oil and methods of treating wounds, burns and skin injuries therewith” (CuraPhyte Technologies Inc., priority 2009, dated 2014).
Marks after values point to notes of the source that are not given here.

Test system: mouse cutaneous injury model
Assay: Wound healing in mouse cutaneous injury model
Format: in vivo
Settings: TOP
Procedure: Animal model: Groups of 8 ICR male mice weighing 22±2 g were used. Under ether anesthesia, the shoulder and back region of each animal was shaved. A sharp punch (ID 12 mm) was used to remove the skin including panniculus carnosus and adherent tissues. The wound area, traced onto clear plastic sheets on days 3, 5, 7, 9 and 11, were quantitated by use of an Image Analyzer (Life Science Resources VISTA, Version 30). Test compound and vehicle (20 μl, 1.5% carboxymethylcellulose in PBS) were applied topically immediately following injury and in single, two or three applications daily thereafter for a total of 10 consecutive days. The wound half-closure time (CT50) was determined and unpaired Student's t test was applied for comparison between treated and vehicle group at each measurement time point. Differences are considered statistical significance at P<0.05. CGS-21680 ((2-p-carboxyethyl)phenylamino-5′-N-carboxamidoadenosine) was used as a positive comparator. Test substance C-T-1001 (Ointment A: herbal active ingredients tea tree oil, boswellia resin, aloe vera gel and lavender oil) was evaluated for possible wound healing activity. The test substance was applied topically to the wound area once, twice, or three times daily for 10 consecutive days. Percent closure of the wound (%) was determined on days 3, 5, 7, 9 and 11 in order to generate the half closure time (CT50). One-way ANOVA followed by Dunnett's test was used to determine significant difference between the treated groups and vehicle control.

In the case of `CCNC(=O)[C@H]1O[C@@H](n2cnc3c(N)nc(NCCc4ccc(CCC(=O)O)cc4)nc32)[C@H](O)[C@@H]1O` [CGS-21680], the “The Closure of Wound (%) Day 3” value (10 μg/mouse × 10, Day 3, mean (X)) is reported as 42.4* %, the “The Closure of Wound (%) Day 5” value (10 μg/mouse × 10, Day 5, mean (X)) is reported as 56.3* % and the “The Closure of Wound (%) Day 7” value (10 μg/mouse × 10, Day 7, mean (X)) is reported as 66.8* %. For the same molecule, the “The Closure of Wound (%) Day 9” value (10 μg/mouse × 10, Day 9, mean (X)) was 74.3* %, the “The Closure of Wound (%) Day 11” value (10 μg/mouse × 10, Day 11, mean (X)) was 81.7* % and the “CT50 (Days), wound half-closure time” value (10 μg/mouse × 10, mean (X)) was 5.5* Days.
